In general, ED50 refers to the dose that gives a 50% effect, or the effect in half of the subjects. As a reminder, the inhibition in vivo is the percentage by which the read-out fell short of the control. Read a high inhibition in vivo as a response far below the control.

From ChEMBL document CHEMBL1144219, “Synthesis of new 4-[2-(4-methyl(amino)sulfonylphenyl)-5-trifluoromethyl-2H-pyrazol-3-yl]-1,2,3,6-tetrahydropyridines: a search for novel nitric oxide donor anti-inflammatory agents” (2008) come the findings set out here.

The subject of test [1] is Rattus norvegicus. In words: Antiinflammatory activity against po dosed carrageenan-induced rat foot paw edema model. The format is functional.
Test [2] relates to Rattus norvegicus. In words: Antiinflammatory activity against carrageenan-induced rat foot paw edema model at 100 mg/kg, po. The format is functional.

The source made the active and inactive calls. No cut-off for these calls is given here.

`CS(=O)(=O)c1ccc(-n2nc(C(F)(F)F)cc2C2=CCN(N=O)CC2)cc1` displayed an ED50 in the test on Rattus norvegicus [1] of 115 mg/kg.

On to `CCOC(=O)N1CC=C(c2cc(C(F)(F)F)nn2-c2ccc(S(N)(=O)=O)cc2)CC1`, for which the outcome with Rattus norvegicus [2] was inactive.

Take `CN1CC=C(c2cc(C(F)(F)F)nn2-c2ccc(S(C)(=O)=O)cc2)CC1`: in the test on Rattus norvegicus [1], the 50% effect level (ED50) was put at a dose of 95.3 mg/kg.

Take `CN1CC=C(c2cc(C(F)(F)F)nn2-c2ccc(S(N)(=O)=O)cc2)CC1`: in the test with Rattus norvegicus [1], it took a dose of 61.2 mg/kg to reach the 50% effect level (ED50).

For `CCOC(=O)N1CC=C(c2cc(C(F)(F)F)nn2-c2ccc(S(C)(=O)=O)cc2)CC1`, the inhibition in vivo at 100 mg/kg in the test with Rattus norvegicus [2] was 24.1%.

In the test with Rattus norvegicus [2], `NS(=O)(=O)c1ccc(-n2nc(C(F)(F)F)cc2C2=CCNCC2)cc1` registered an inhibition in vivo at 100 mg/kg of 7.1%.

Molecule `CS(=O)(=O)c1ccc(-n2nc(C(F)(F)F)cc2C2=CCNCC2)cc1` yielded an ED50 in the test on Rattus norvegicus [1] of 129 mg/kg.

For the molecule `CC(=O)Oc1ccccc1C(=O)O` [ASPIRIN], in the test on Rattus norvegicus [1], the ED50 turned out to be 129 mg/kg.
